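The compound was tested at five concentrations on cells cultured in 96-well plates, with a 48-hour exposure period. Abbreviation: GI50, concentration required for 50% inhibition of growth. The concentration for full growth arrest is given as TGI.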
Assays:
Experiment in all cases: DTP human tumour cell line panel, 48 h
BT-549 breast = test system: BT-549 breast
UACC-62 melanoma = test system: UACC-62 melanoma
LOX IMVI melanoma = test system: LOX IMVI melanoma
A498 renal = test system: A498 renal
SW-620 colon = test system: SW-620 colon
SR leukemia = test system: SR leukemia
T-47D breast = test system: T-47D breast
HS 578T breast = test system: HS 578T breast
SF-268 CNS = test system: SF-268 CNS
SF-539 CNS = test system: SF-539 CNS
SNB-75 CNS = test system: SNB-75 CNS
UO-31 renal = test system: UO-31 renal
UACC-257 melanoma = test system: UACC-257 melanoma
HCT-116 colon = test system: HCT-116 colon
OVCAR-8 ovarian = test system: OVCAR-8 ovarian
NCI-H23 lung = test system: NCI-H23 lung
NCI/ADR-RES ovarian = test system: NCI/ADR-RES ovarian
K-562 leukemia = test system: K-562 leukemia
DU-145 prostate = test system: DU-145 prostate
SNB-19 CNS = test system: SNB-19 CNS
HL-60(TB) leukemia = test system: HL-60(TB) leukemia
OVCAR-5 ovarian = test system: OVCAR-5 ovarian
MALME-3M melanoma = test system: MALME-3M melanoma
IGROV1 ovarian = test system: IGROV1 ovarian
MCF7 breast = test system: MCF7 breast
SN12C renal = test system: SN12C renal
SK-MEL-28 melanoma = test system: SK-MEL-28 melanoma
PC-3 prostate = test system: PC-3 prostate
HT29 colon = test system: HT29 colon
TK-10 renal = test system: TK-10 renal
OVCAR-4 ovarian = test system: OVCAR-4 ovarian
OVCAR-3 ovarian = test system: OVCAR-3 ovarian
ACHN renal = test system: ACHN renal
SF-295 CNS = test system: SF-295 CNS
SK-MEL-2 melanoma = test system: SK-MEL-2 melanoma
SK-OV-3 ovarian = test system: SK-OV-3 ovarian
HCC-2998 colon = test system: HCC-2998 colon
MDA-MB-435 = test system: MDA-MB-435
HCT-15 colon = test system: HCT-15 colon
MDA-MB-231 breast = test system: MDA-MB-231 breast
786-0 renal = test system: 786-0 renal
NCI-H522 lung = test system: NCI-H522 lung
SK-MEL-5 melanoma = test system: SK-MEL-5 melanoma
COLO 205 colon = test system: COLO 205 colon
NCI-H460 lung = test system: NCI-H460 lung
U251 CNS = test system: U251 CNS
CCRF-CEM leukemia = test system: CCRF-CEM leukemia
RPMI-8226 leukemia = test system: RPMI-8226 leukemia
MOLT-4 leukemia = test system: MOLT-4 leukemia
CAKI-1 renal = test system: CAKI-1 renal
EKVX NSCLC = test system: EKVX NSCLC
NCI-H226 lung = test system: NCI-H226 lung
KM12 colon = test system: KM12 colon
HOP-62 NSCLC = test system: HOP-62 NSCLC
RXF 393 renal = test system: RXF 393 renal
A549 NSCLC = test system: A549 NSCLC
M14 melanoma = test system: M14 melanoma
HOP-92 NSCLC = test system: HOP-92 NSCLC

`CN1CCN(Cc2ccc(NC(=O)c3cncc(C#Cc4c(N)ncc5ccc(F)cc45)c3)cc2C(F)(F)F)CC1` gave a GI50 (BT-549 breast) of 2140 nM, a TGI (BT-549 breast) of 8.66 µM and a GI50 (UACC-62 melanoma) of 640 nM. The TGI (UACC-62 melanoma) was 1810 nM, the GI50 (LOX IMVI melanoma) was 303 nM and the TGI (LOX IMVI melanoma) was 1050 nM. For the same compound, the GI50 (A498 renal) was 299 nM, the TGI (A498 renal) was 1260 nM and the GI50 (SW-620 colon) was 206 nM. For the same compound, the TGI (SW-620 colon) was 1130 nM, the GI50 (SR leukemia) was 809 nM and the TGI (SR leukemia) was 11.3 µM. It also gave a GI50 (T-47D breast) of 23.8 µM, a TGI (T-47D breast) of 50 µM and a GI50 (HS 578T breast) of 512 nM. For the same compound, the TGI (HS 578T breast) was 1930 nM, the GI50 (SF-268 CNS) was 783 nM and the TGI (SF-268 CNS) was 2430 nM. The GI50 (SF-539 CNS) was 628 nM, the TGI (SF-539 CNS) was 2650 nM and the GI50 (SNB-75 CNS) was 721 nM. For the same compound, the TGI (SNB-75 CNS) was 2660 nM, the GI50 (UO-31 renal) was 688 nM and the TGI (UO-31 renal) was 1500 nM. It also gave a GI50 (UACC-257 melanoma) of 694 nM, a TGI (UACC-257 melanoma) of 1690 nM and a GI50 (HCT-116 colon) of 211 nM. The TGI (HCT-116 colon) was 1370 nM, the GI50 (OVCAR-8 ovarian) was 1760 nM and the TGI (OVCAR-8 ovarian) was 8.03 µM. The GI50 (NCI-H23 lung) was 574 nM, the TGI (NCI-H23 lung) was 4.58 µM and the GI50 (NCI/ADR-RES ovarian) was 1890 nM. It also gave a TGI (NCI/ADR-RES ovarian) of 5.83 µM, a GI50 (K-562 leukemia) of 5 nM and a TGI (K-562 leukemia) of 1070 nM. The GI50 (DU-145 prostate) was 1450 nM, the TGI (DU-145 prostate) was 7.02 µM and the GI50 (SNB-19 CNS) was 3.47 µM. For the same compound, the TGI (SNB-19 CNS) was 12 µM, the GI50 (HL-60(TB) leukemia) was 75.8 nM and the TGI (HL-60(TB) leukemia) was 1980 nM. For the same compound, the GI50 (OVCAR-5 ovarian) was 524 nM, the TGI (OVCAR-5 ovarian) was 1270 nM and the GI50 (MALME-3M melanoma) was 166 nM. For the same compound, the TGI (MALME-3M melanoma) was 743 nM, the GI50 (IGROV1 ovarian) was 369 nM and the TGI (IGROV1 ovarian) was 6.43 µM. The GI50 (MCF7 breast) was 297 nM, the TGI (MCF7 breast) was 1530 nM and the GI50 (SN12C renal) was 937 nM. It also gave a TGI (SN12C renal) of 5.3 µM, a GI50 (SK-MEL-28 melanoma) of 621 nM and a TGI (SK-MEL-28 melanoma) of 1370 nM. For the same compound, the GI50 (PC-3 prostate) was 1230 nM, the TGI (PC-3 prostate) was 3.78 µM and the GI50 (HT29 colon) was 126 nM. It also gave a TGI (HT29 colon) of 789 nM, a GI50 (TK-10 renal) of 960 nM and a TGI (TK-10 renal) of 2290 nM. It also gave a GI50 (OVCAR-4 ovarian) of 825 nM, a TGI (OVCAR-4 ovarian) of 3.87 µM and a GI50 (OVCAR-3 ovarian) of 4.07 µM. It also gave a TGI (OVCAR-3 ovarian) of 16.5 µM, a GI50 (ACHN renal) of 562 nM and a TGI (ACHN renal) of 1270 nM. For the same compound, the GI50 (SF-295 CNS) was 4.37 µM, the TGI (SF-295 CNS) was 13 µM and the GI50 (SK-MEL-2 melanoma) was 479 nM. For the same compound, the TGI (SK-MEL-2 melanoma) was 2550 nM, the GI50 (SK-OV-3 ovarian) was 5.96 µM and the TGI (SK-OV-3 ovarian) was 13.6 µM. The GI50 (HCC-2998 colon) was 653 nM, the TGI (HCC-2998 colon) was 9.66 µM and the GI50 (MDA-MB-435) was 180 nM. For the same compound, the TGI (MDA-MB-435) was 876 nM, the GI50 (HCT-15 colon) was 487 nM and the TGI (HCT-15 colon) was 6.85 µM. It also gave a GI50 (MDA-MB-231 breast) of 240 nM, a TGI (MDA-MB-231 breast) of 1150 nM and a GI50 (786-0 renal) of 911 nM. For the same compound, the TGI (786-0 renal) was 1810 nM, the GI50 (NCI-H522 lung) was 1750 nM and the TGI (NCI-H522 lung) was 11.5 µM. For the same compound, the GI50 (SK-MEL-5 melanoma) was 690 nM, the TGI (SK-MEL-5 melanoma) was 1360 nM and the GI50 (COLO 205 colon) was 206 nM. The TGI (COLO 205 colon) was 3.32 µM, the GI50 (NCI-H460 lung) was 647 nM and the TGI (NCI-H460 lung) was 3.33 µM. For the same compound, the GI50 (U251 CNS) was 1050 nM, the TGI (U251 CNS) was 4 µM and the GI50 (CCRF-CEM leukemia) was 553 nM. It also gave a TGI (CCRF-CEM leukemia) of 3.73 µM, a GI50 (RPMI-8226 leukemia) of 757 nM and a TGI (RPMI-8226 leukemia) of 3.87 µM. The GI50 (MOLT-4 leukemia) was 234 nM, the TGI (MOLT-4 leukemia) was 3.03 µM and the GI50 (CAKI-1 renal) was 1060 nM. The TGI (CAKI-1 renal) was 5.68 µM, the GI50 (EKVX NSCLC) was 2830 nM and the TGI (EKVX NSCLC) was 10.6 µM. The GI50 (NCI-H226 lung) was 400 nM, the TGI (NCI-H226 lung) was 1750 nM and the GI50 (KM12 colon) was 5 nM. It also gave a TGI (KM12 colon) of 939 nM, a GI50 (HOP-62 NSCLC) of 1170 nM and a TGI (HOP-62 NSCLC) of 4.67 µM. The GI50 (RXF 393 renal) was 642 nM, the TGI (RXF 393 renal) was 1390 nM and the GI50 (A549 NSCLC) was 960 nM. For the same compound, the TGI (A549 NSCLC) was 6.21 µM, the GI50 (M14 melanoma) was 194 nM and the TGI (M14 melanoma) was 857 nM. The GI50 (HOP-92 NSCLC) was 28.5 nM and the TGI (HOP-92 NSCLC) was 322 nM.
